The values that follow come from patent US20260200926A1, “TREM2 MODULATORS” (Muna Therapeutics ApS, priority 2022, published 2026).

The target in the assay is T1, Human TREM2 (Homo sapiens, UniProt Q9NZC2).
T1 construct: expressed in transfected cells
As to the kind of experiment: Human TREM2 activity: cellular phosphorylation of Syk (AlphaLISA SureFire Ultra p-SYK) in HEK293/DAP12+TREM2 stable cell line. Particulars: for Emax: maximal response relative to reference agonist example 1B (remaining examples); for EC50: phospho-Syk AlphaLISA signal, HEK293/DAP12+TREM2 cells, concentration giving 50% of maximal response, read-out: EC50. The class given is cell-based. In a few lines: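 The read-out was p-Syk (Tyr525/526), measured by AlphaLISA in lysates of a stable HEK293/DAP12+TREM2 clone. Cells (10,000/well, plated the day before) received compound for 30 min at 37 °C. Dosing used 8 points in quadruplicate, top 100 μM with 1:6 dilution, 0.5% final DMSO.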
In general terms: In Alpha technology, singlet oxygen from a donor bead excites a nearby acceptor bead.

Read-outs that look alike come from different tables or passages of the source.

T1 sequence (Q9NZC2 19-230): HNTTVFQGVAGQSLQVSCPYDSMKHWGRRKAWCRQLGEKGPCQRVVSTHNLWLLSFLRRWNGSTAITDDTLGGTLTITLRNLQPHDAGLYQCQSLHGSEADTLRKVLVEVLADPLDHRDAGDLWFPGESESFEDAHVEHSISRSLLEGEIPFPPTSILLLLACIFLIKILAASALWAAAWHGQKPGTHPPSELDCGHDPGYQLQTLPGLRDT
T1 sequence (O43914 22-113 partner): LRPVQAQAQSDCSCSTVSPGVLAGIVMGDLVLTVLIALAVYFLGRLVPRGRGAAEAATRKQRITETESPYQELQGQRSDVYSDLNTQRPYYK

A word on the Emax: it is the size of the effect at its maximum, as opposed to the concentration needed. As a reminder, the EC50 is the midpoint of the concentration-response curve. Regarding `Cc1nc2c(-c3ccc(C(F)(F)F)nc3)nc([C@@H]3CCO[C@H](c4cnn(C5CC5)c4)C3)nc2c(=O)n1C` (single isomer, unassigned) [Example 98A], the EC50 is 10 to 100 nM. Moreover, the Emax (HEK293, read-out: Emax) was less than 75%.
`Cc1nc2c(-c3ccc(Cl)cc3F)nc(N3CC(c4cnn(C)c4)OC4(CC4)C3)c(F)c2c(=O)n1C` (centres unmarked) [Example 157, 8-(4-chloro-2-fluorophenyl)-5-fluoro-2,3-dimethyl-6-(5-(1-methyl-1H-pyrazol-4-yl)-4-oxa-7-azaspiro[2.5]octan-7-yl)pyrido[3,4-d]pyrimidin-4 (3H)-one]: the EC50 was 100 to 1000 nM. Moreover, the Emax (HEK293, read-out: Emax) was less than 75%.
In the same order, the values of `Cc1nc2c(-c3ccc(Cl)cc3F)nc(N3CCC(Oc4cnn(C)c4)CC3)nc2c(=O)n1C` [Example 77, 8-(4-chloro-2-fluorophenyl)-2,3-dimethyl-6-(4-((1-methyl-1H-pyrazol-4-yl)oxy)piperidin-1-yl)pyrimido[5,4-d]pyrimidin-4 (3H)-one] are more than 1000 nM and 75 to 110%.
Regarding `Cc1nc2c(-c3cc(F)c(F)cc3F)nc([C@@H]3CCO[C@H](c4cnn(C)c4)C3)nc2c(=O)n1C` (single isomer, unassigned) [Example 38A], the EC50 was in the range of 100 to 1000 nM. In addition, the Emax (HEK293, read-out: Emax) was less than 75%.
With `Cc1cc([C@@H]2CN(c3nc(-c4ccc(Cl)cc4F)c4nc(C)n(C)c(=O)c4n3)CCO2)ccn1` (single isomer, unassigned) [Example 23A], the EC50 was 10 to 100 nM. Besides, where the note is “HEK293, read-out: Emax”, the Emax was less than 75%.
In the same order, the values of `Cc1nc2c(-c3ccc(C(F)(F)F)cc3F)cc([C@H]3CCO[C@@H](c4cnn(C5CC5)c4)C3)cc2c(=O)n1C` (single isomer, unassigned) [Example 118B] are more than 1000 nM and less than 75%.
In the same order, the values of `Cc1nc2c(-c3ccc(Cl)cc3F)cc(N3C[C@@H](c4cnn(C)c4)OC(C)(C)C3)nc2c(=O)n1C` (single isomer, unassigned) [Example 142A] are 100 to 1000 nM and less than 75%.
In the same order, the values of `Cc1nc2c(-c3ccc(Cl)cc3F)nc(N3CCOC(c4cnn(C)c4)C3)nc2c(=O)[nH]1` (centres unmarked) [Example 60, 8-(4-chloro-2-fluorophenyl)-2-methyl-6-(2-(1-methyl-1H-pyrazol-4-yl)morpholino)pyrimido[5,4-d]pyrimidin-4 (3H)-one] are 100 to 1000 nM and less than 75%.
For the compound `Cc1nc2c(-c3ccc(Cl)cc3F)nc(N3CCC(F)(F)C(c4cnn(C)c4)C3)nc2c(=O)n1C` (centres unmarked) [Example 13, 8-(4-chloro-2-fluorophenyl)-6-(4,4-difluoro-3-(1-methyl-1H-pyrazol-4-yl)piperidin-1-yl)-2,3-dimethylpyrimido[5,4-d]pyrimidin-4 (3H)-one], the 50% effective concentration (EC50) was 1 to 10 nM. Also, the Emax (HEK293, read-out: Emax) fell in the range of 75 to 110%.
For `Cc1cc([C@H]2CN(c3nc(-c4ccc(Cl)cc4F)c4nc(C)n(C)c(=O)c4n3)C[C@@H](C)O2)ccn1` (single isomer, unassigned) [Example 176B] the same measures were 1 to 10 nM and 75 to 110%.
In the same order, the values of `Cc1nc2c(-c3ccc(C(F)(F)F)nc3)nc([C@H]3CCO[C@@H](c4cnn(C)c4)C3)nc2c(=O)n1C` (single isomer, unassigned) [Example 88B] are more than 1000 nM and less than 75%.
In the same order, the values of `Cc1nc(C2CN(c3nc(-c4ccc(Cl)cc4F)c4nc(C)n(C)c(=O)c4n3)CCO2)no1` (centres unmarked) [Example 50, 8-(4-chloro-2-fluorophenyl)-2,3-dimethyl-6-(2-(5-methyl-1,2,4-oxadiazol-3-yl)morpholino)pyrimido[5,4-d]pyrimidin-4(3H)-one] are 10 to 100 nM and less than 75%.
Regarding `Cc1nc2c(-c3cc(F)c(F)cc3F)nc(N3C[C@@H](c4cnn(C)c4)OC4(CC4)C3)cc2c(=O)n1C` (single isomer, unassigned) [Example 146A], the EC50 fell in the range of 10 to 100 nM. Moreover, the Emax (HEK293, read-out: Emax) was 75 to 110%.
In the same order, the values of `Cc1cc([C@H]2CN(c3cc4c(=O)n(C)c(C(F)(F)F)nc4c(-c4ccc(F)cc4F)n3)C[C@@H](C)O2)ccn1` (single isomer, unassigned) [Example 189B] are 100 to 1000 nM and 75 to 110%.
In the same order, the values of `Cc1nc2c(-c3ccc(C(F)(F)F)cc3F)nc(N3CCOC(c4cnn(C)c4)C3)nc2c(=O)n1C` (centres unmarked) [Example 10, 8-(2-fluoro-4-(trifluoromethyl)phenyl)-2,3-dimethyl-6-(2-(1-methyl-1H-pyrazol-4-yl)morpholino)pyrimido[5,4-d]pyrimidin-4(3H)-one] are 100 to 1000 nM and 75 to 110%.
For `Cc1nc2c(-c3ccc(C(F)(F)F)cc3F)nc(N3C[C@@H](C)O[C@@H](c4cnn(C5CC5)c4)C3)nc2c(=O)n1C` (single isomer, unassigned) [Example 195B] the same measures were less than 1 nM and 75 to 110%.
As for `Cc1cc([C@@H]2CN(c3nc(-c4ccc(C(F)(F)F)cc4F)c4nc(C)n(C)c(=O)c4n3)C[C@H](C)O2)ccn1` (single isomer, unassigned) [Example 179A], the EC50 lay in the range of 1 to 10 nM. For the same compound, the Emax (HEK293, read-out: Emax) lay within 75 to 110%.
In the same order, the values of `Cc1nc2c(-c3ccc(Cl)cc3F)nc(N3CCOC(c4ncon4)C3)nc2c(=O)n1C` (centres unmarked) [Example 58, 6-(2-(1,2,4-oxadiazol-3-yl)morpholino)-8-(4-chloro-2-fluorophenyl)-2,3-dimethylpyrimido[5,4-d]pyrimidin-4(3H)-one] are 100 to 1000 nM and 75 to 110%.
Consider `Cc1nc2c(-c3cc(F)c(F)cc3F)nc([C@@H]3CCO[C@H](c4cnn(C5CC5)c4)C3)nc2c(=O)n1C` (single isomer, unassigned) [Example 97A], for which the EC50 lay within 10 to 100 nM. In addition, the Emax (HEK293, read-out: Emax) was in the range of 75 to 110%.
For `Cc1nc2c(-c3ccc(Cl)cc3F)nc(N3CCO[C@H](c4cnn(C5CC5)c4)C3)nc2c(=O)n1C` (single isomer, unassigned) [Example 26A] the same measures were 10 to 100 nM and 75 to 110%.
In the case of “6-((2R,4S)-2-(1-cyclopropyl-1H-pyrazol-4-yl)tetrahydro-2H-pyran-4-yl)-8-(2-fluoro-4-(trifluoromethyl)phenyl)-2,3-dimethylquinazolin-4 (3H)-one [Example 120B]”, the Emax result is “++ (75-110%)” and the EC50 lay within 10 to 100 nM.
As to `Cc1cc([C@H]2CN(c3nc(-c4ccc(F)cc4F)c4nc(C)n(C)c(=O)c4n3)CCO2)ccn1` (single isomer, unassigned) [Example 122B], the EC50 fell in the range of 100 to 1000 nM. Further, the Emax (HEK293, read-out: Emax) was less than 75%.
In the same order, the values of `Cc1nc2c(-c3ccc(C(F)(F)F)nc3)nc(N3CCC(F)(F)[C@H](c4cnn(C)c4)C3)nc2c(=O)n1C` (single isomer, unassigned) [Example 92] are 10 to 100 nM and less than 75%.
For `Cc1nc2c(-c3ccc(Cl)cc3F)nc(N3CCO[C@@H](c4cnn(C)c4)C3)nc2c(=O)[nH]1` (single isomer, unassigned) [Example 203B] the same measures were 100 to 1000 nM and less than 75%.
In the same order, the values of `Cc1nc2c(-c3ccc(F)cc3F)nc([C@@H]3CCO[C@H](c4cnn(C5CC5)c4)C3)nc2c(=O)n1C` (single isomer, unassigned) [Example 120A] are more than 1000 nM and less than 75%.
Turning to `Cc1cc([C@@H]2CN(c3cc4c(=O)n(C)c(C)nc4c(-c4ccc(C(F)F)nc4)n3)CC(C)(C)O2)ccn1` (single isomer, unassigned) [Example 180A], the half-maximal effective concentration (EC50) was more than 1000 nM. Moreover, the Emax (HEK293, read-out: Emax) is less than 75%.
In the same order, the values of `Cc1nc2c(-c3ccc(F)cc3F)nc(N3C[C@@H](c4cnn(C)c4)OC(F)(F)C3)cc2c(=O)n1C` (single isomer, unassigned) [Example 166A] are 1 to 10 nM and 75 to 110%.
For `Cc1nc2c(-c3ccc(F)cc3F)nc(N3CCO[C@@H](c4cnn(C)c4)C3)cc2c(=O)n1C` (single isomer, unassigned) [Example 129A] the same measures were 10 to 100 nM and 75 to 110%.
For `Cc1csc(C2CN(c3nc(-c4ccc(Cl)cc4F)c4nc(C)n(C)c(=O)c4n3)CCO2)n1` (centres unmarked) [Example 45, 8-(4-chloro-2-fluorophenyl)-2,3-dimethyl-6-(2-(4-methylthiazol-2-yl)morpholino)pyrimido[5,4-d]pyrimidin-4(3H)-one] the same measures were 10 to 100 nM and less than 75%.
Turning to `Cc1nc2c(C3CC4(C3)CC(F)(F)C4)nc(N3CCOC(c4cnn(C)c4)C3)nc2c(=O)n1C` (centres unmarked) [Example 72, 8-(6,6-difluorospiro[3.3]heptan-2-yl)-2,3-dimethyl-6-(2-(1-methyl-1H-pyrazol-4-yl)morpholino)pyrimido[5,4-d]pyrimidin-4 (3H)-one], the EC50 lay within 100 to 1000 nM. In addition, the Emax (HEK293, read-out: Emax) lay in the range of 75 to 110%.
As to `Cc1cc([C@@H]2CN(c3nc(-c4ccc(C(F)(F)F)nc4)c4nc(C)n(C)c(=O)c4n3)CC(C)(C)O2)ccn1` (single isomer, unassigned) [Example 164A], the EC50 lay within 10 to 100 nM. Moreover, under “HEK293, read-out: Emax”, the Emax was in the range of 75 to 110%.
In the same order, the values of `Cn1c(C(F)(F)F)nc2c(-c3cc(F)c(F)cc3F)nc([C@H]3CCO[C@@H](c4cnn(C5CC5)c4)C3)nc2c1=O` (single isomer, unassigned) [Example 186B] are 100 to 1000 nM and less than 75%.
In the same order, the values of `Cc1nc2c(-c3cc(F)c(F)cc3F)nc(N3C[C@@H](c4cnn(C)c4)OC(C)(C)C3)cc2c(=O)n1C` (single isomer, unassigned) [Example 150A] are 10 to 100 nM and 75 to 110%.
For `Cc1nc2c(-c3cc(F)c(F)cc3F)nc([C@H]3CCO[C@@H](c4cnn(C5CC5)c4)C3)cc2c(=O)n1C` (single isomer, unassigned) [Example 139B] the same measures were 100 to 1000 nM and less than 75%.
